Laboratory results taken from patent publication US11491185B2, “Intra-mammary teat sealant formulation and method of using same to reduce or eliminate visual defects in aged cheeses” (Wisconsin Alumni Research Foundation, priority 2006, dated 2022).

Test: Laboratory-induced black spot defect: cheese with ITS components exposed to aged cheese volatiles or hydrogen sulfide gas
Type: physicochemical
Conditions: blended in cheese, exposed to authentic cheese volatiles or H2S gas
Protocol: FIGS. 4A and 4B are images of laboratory-induced black spot defects. In FIG. 4A, the various components of “ORBESEAL”-brand intra-mammary teat sealant (ITS) were blended with cheese and each spot was photographed immediately. […] Sites 4 and 5 contain bismuth subnitrate and the intact “ORBESEAL”-brand ITS formulation, respectively.
To confirm the reactivity of bismuth subnitrate as a reactant in forming bismuth Ill sulfide nanorods, additional assays were conducted to see if BSD could be purposefully recreated in the lab. In short, cheeses were manufactured with known amounts of ITS components and subjected to either the authentic volatile gasses produced by maturing cheeses or exposed directly to the hypothesized bismuth subnitrate co-reactant, hydrogen sulfide gas. […] No other ITS component formed black spots when so exposed. Furthermore, the susceptible sites formed identically black pigmentation when exposed to either authentic cheese volatiles or to hydrogen sulfide gas, thus confirming that hydrogen sulfide gas was the suspected co-reactant.

O=[N+]([O-])[O-].O=[N+]([O-])[O-].O=[N+]([O-])[O-].O=[N+]([O-])[O-].[Bi+3].[Bi+3].[Bi+3].[Bi+3].[Bi+3].[O-2].[OH-].[OH-].[OH-].[OH-].[OH-].[OH-].[OH-].[OH-].[OH-] [bismuth subnitrate]
Formation of black pigmentation (black spots) with nanorod structures: formed identical black pigmentation
